The record followed here is article PMC7536072, “Molecular and functional characterization of somatostatin-type signalling in a deuterostome invertebrate” (Open Biology, 2020).

In test [1] the test system is CHO-K1 cells transfected with an empty pcDNA3.1(+) vector. Nature of the test: luminescence control assay, CHO-K1 cells transfected with empty vector. In kind it is cell-based, Chinese hamster. Conditions: 10^-12 to 10^-5 M (figure S12), 0.1 % Triton X-100 = 100%. On the procedure: In order to characterize the candidate SS-type receptors, a G-protein-dependent receptor activation assay was employed. Chinese hamster ovary (CHO)-K1 cells stably overexpressing the calcium-sensitive bioluminescent reporter GFP-aequorin fusion protein (G5A) were used as a heterologous expression system. Plasmids containing A. rubens SS-type receptor cDNAs were co-transfected with the promiscuous human Gα16, which is widely used for receptor deorphanization assays. […] After 3 h incubation, a fixed volume of cells was injected sequentially into each well containing different concentrations of peptides using a FLUOstar Omega Plate Reader (BMG LABTECH, Ortenberg, Germany). Luminescence values were recorded over a 35 s period after injection. The total luminescence of each well over the 35 s period was calculated and normalized to the maximum value obtained in each experiment (100% activation) and to the value obtained with the vehicle media (0% activation). […] EC50 values were calculated from dose–response curves using Prism 6. The luminescence responses triggered by 10^−5 M ArSS1, 10^−5 M ArSS2 and vehicle media were analysed by one-way ANOVA using Bonferroni's multiple comparisons post hoc test in Prism 6. […]

The subject of test [2] is tube foot preparations from A. rubens. The test can be described thus: in vitro relaxation of tube foot preparations. Set-up: species or system Asterias rubens. The procedure:
(§1) Synthetic ArSS2 ([…], with a disulfide bridge between the cysteine residues) was custom synthesized (Peptide Protein Research Ltd, Fareham, UK) to enable testing of its pharmacological effects on in vitro preparations of organs/muscles from A. rubens. ArSS2 was tested for its in vitro effects on the contractility of tube foot, apical muscle and cardiac stomach preparations from at least six different specimens of A. rubens. Individual tube foot preparations were dissected from starfish arms with their corresponding ampulla intact. […] Data collected from PowerLab were visualized as traces and analysed using LabChart (v. 8.0.7) software installed on a laptop computer (Lenovo E540, Windows 7 Professional). […]
To examine the effects of ArSS2 on tube foot and cardiac stomach preparations, 10^−6 M acetylcholine (ACh) or artificial seawater (ASW) containing 30 mM added KCl was used to induce contraction of these preparations, respectively. Once a stable baseline contracted state was achieved, synthetic ArSS2 was added into the organ bath to sequentially achieve final concentrations in the range of 10^−10 to 10^−6 M. For these experiments, the contracting effect of 10^−6 M ACh or ASW containing 30 mM added KCl was defined as 100% and the relaxing effects of ArSS2 were then calculated as a percentage reversal of the 100% contracted state.

Test [3] deals with apical muscle preparations from A. rubens. The test can be described thus: in vitro contractility of apical muscle preparations. Details: species or system Asterias rubens. Conditions: data not shown. On the procedure: as §1, with “intact. Then cotton ligatures were tied around the ambulacral body wall and the tube foot disc and then the external epithelium of the tube foot was scraped off using a blunt scalpel blade to facilitate penetration of peptides when tested in vitro, as described previously. Apical muscle preparations were dissected from the aboral body wall with approximately 1 cm strips of apical muscle tied at each end with cotton ligatures. Cardiac stomach preparations were dissected as described previously and then were tied at the aboral side of the cardiac stomach and around the oesophagus with cotton ligatures.” for “intact.”

“Also recorded” adds a separate entry of the source. Bridges are numbered along the chain shown (N, C = ends). Where no end group is shown, it is not given here.

“RAKNARCMADFWKGRGLVDC (disulfide 7-20 (inferred)) [ArSS2]”: the “luminescence response in cells with empty vector” value in test [1] is on record as “do not trigger luminscence; also recorded: Neither ArSS1 nor ArSS2 elicited responses”. Further, the “reversal of ACh-induced tube foot contraction” value in test [2] (10^−6 M, contraction induced by 10^−6 M acetylcholine = 100%, artificial seawater, approximately 11°C, mean ± s.e.m., n = 6) was 91% ± 13%. Besides, in test [2] (pre-contracted with 10^−6 M ACh, tested 10^−10 to 10^−6 M), the “relaxation of tube foot preparations” value was “dose-dependent relaxation of tube foot preparations at concentrations between 10^−9 and 10^−6 M”. The “effect on contractility of apical muscle preparations” value in test [3] is “did not cause relaxation; also recorded: no observable effects”.
